Measured values published in patent US20230398112A1, “SPRAY-DRIED METAL-ORGANIC FRAMEWORKS FOR TREATMENT AND/OR DIAGNOSIS OF PULMONARY DISEASE” (priority 2020, published 2023).

Tests used:
Mtb = settings: delivered orally; cited from earlier work
[1] = Thermogravimetric analysis (TGA), thermal stability; type: physicochemical; settings: under air at 3° C./min
Description: The loss of ca 10 wt. % below 100° C. is attributable to crystallized water leading to a dark blue anhydrous Cu(POA)2 crystalline phase, which can also be instantaneously obtained by exposing the hydrated phase to various organic solvents (i.e. MeOH, EtOH and DMF). […] Fourier-transform infrared spectroscopy (FTIR) analysis also clearly distinguishes between the two phases, as an absorption band attributed to coordinated water at 3.400 cm^−1 can be seen for the hydrated form in FIG. 1D.

O=C(O)c1cnccn1 [POA, pyrazinoic acid]
efficacy as TB therapy (Mtb): ineffective
thermal stability (TGA) [1]: 100-200 °C
